{"source": "ChEMBL document CHEMBL1201862", "about": "“PubChem BioAssay data set” (2004)", "key": {"[1]": {"target": "T1, 1-phosphatidylinositol 4,5-bisphosphate phosphodiesterase beta-3 (Homo sapiens, UniProt Q01970)", "T1 sequence (Q01970 whole entry)": "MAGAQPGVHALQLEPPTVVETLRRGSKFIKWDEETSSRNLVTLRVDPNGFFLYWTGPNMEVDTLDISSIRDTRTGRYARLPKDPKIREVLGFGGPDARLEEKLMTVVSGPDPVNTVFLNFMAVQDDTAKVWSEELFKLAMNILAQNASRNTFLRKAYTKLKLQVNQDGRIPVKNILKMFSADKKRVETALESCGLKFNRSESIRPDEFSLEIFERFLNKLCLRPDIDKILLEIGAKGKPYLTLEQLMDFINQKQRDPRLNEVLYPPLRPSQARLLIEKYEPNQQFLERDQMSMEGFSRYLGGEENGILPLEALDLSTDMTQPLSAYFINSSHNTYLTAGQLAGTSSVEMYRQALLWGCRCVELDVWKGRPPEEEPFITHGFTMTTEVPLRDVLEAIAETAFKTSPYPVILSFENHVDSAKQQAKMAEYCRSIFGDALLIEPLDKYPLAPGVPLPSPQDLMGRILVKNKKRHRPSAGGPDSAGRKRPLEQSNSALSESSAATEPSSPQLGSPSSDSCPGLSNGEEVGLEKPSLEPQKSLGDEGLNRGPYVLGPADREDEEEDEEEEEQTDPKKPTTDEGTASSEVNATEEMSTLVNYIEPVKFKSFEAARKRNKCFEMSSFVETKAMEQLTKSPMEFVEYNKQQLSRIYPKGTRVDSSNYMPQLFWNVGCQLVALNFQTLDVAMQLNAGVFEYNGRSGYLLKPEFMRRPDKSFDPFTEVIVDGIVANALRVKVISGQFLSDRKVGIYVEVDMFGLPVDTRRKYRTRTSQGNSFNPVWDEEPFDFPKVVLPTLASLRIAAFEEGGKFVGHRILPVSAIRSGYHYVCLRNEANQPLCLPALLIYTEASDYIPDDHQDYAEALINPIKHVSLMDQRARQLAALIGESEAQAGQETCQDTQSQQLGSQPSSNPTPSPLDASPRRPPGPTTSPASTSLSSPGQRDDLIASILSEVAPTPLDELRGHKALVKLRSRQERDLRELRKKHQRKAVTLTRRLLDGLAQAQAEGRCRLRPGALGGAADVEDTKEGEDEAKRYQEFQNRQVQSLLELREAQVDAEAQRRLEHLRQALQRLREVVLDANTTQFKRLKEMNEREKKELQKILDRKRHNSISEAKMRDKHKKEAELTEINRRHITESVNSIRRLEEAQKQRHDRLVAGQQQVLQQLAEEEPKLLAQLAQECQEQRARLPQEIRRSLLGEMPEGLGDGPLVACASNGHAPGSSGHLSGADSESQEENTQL", "test": "Fluorescence-based biochemical high throughput dose response assay to identify inhibitors of phospholipase C isozymes (PLC-B3)."}, "[2]": {"target": "T2, Rac GTPase-activating protein 1 (Homo sapiens, UniProt Q9H0H5)", "T2 sequence (Q9H0H5 whole entry)": "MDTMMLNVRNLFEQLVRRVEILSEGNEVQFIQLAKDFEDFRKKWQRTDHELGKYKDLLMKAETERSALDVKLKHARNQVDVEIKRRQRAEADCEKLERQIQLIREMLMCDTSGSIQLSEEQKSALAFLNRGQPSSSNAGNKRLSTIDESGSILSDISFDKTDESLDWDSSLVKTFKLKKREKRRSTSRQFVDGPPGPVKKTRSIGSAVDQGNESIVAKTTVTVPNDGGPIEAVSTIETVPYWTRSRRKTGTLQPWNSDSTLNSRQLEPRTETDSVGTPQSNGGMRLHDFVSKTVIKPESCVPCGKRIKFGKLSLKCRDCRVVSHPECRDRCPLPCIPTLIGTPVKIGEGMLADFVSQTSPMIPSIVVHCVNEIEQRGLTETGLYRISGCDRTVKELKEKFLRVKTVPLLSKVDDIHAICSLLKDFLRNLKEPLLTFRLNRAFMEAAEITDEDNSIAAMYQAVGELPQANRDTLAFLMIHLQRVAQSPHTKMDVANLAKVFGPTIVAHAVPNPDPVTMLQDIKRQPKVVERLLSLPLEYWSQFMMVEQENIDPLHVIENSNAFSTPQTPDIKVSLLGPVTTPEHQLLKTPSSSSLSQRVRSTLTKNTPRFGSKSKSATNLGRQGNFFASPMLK", "test": "MgcRacGAP GTPase-activating activity inhibitors, confirmation, biochemical, ADP Hunter fluorescence, primary and confirmatory (AID 624330)", "type": "functional"}, "[3]": {"target": "Heat shock protein HSP 90-alpha (Homo sapiens, UniProt P07900)", "type": "functional, organism-based"}}, "note": "Calls of active or inactive are those of the source. The rule behind the calls is not given here.", "data": [{"smiles": "O=C(NN1C(=O)CSC1=S)C(=O)NN1C(=O)CSC1=S", "values": [{"measurement": "IC50", "setting": "[1]", "result": "> 122 µM (inactive)"}]}, {"smiles": "Cc1ccc2[nH]c(/C(C#N)=C/c3ccc(O)c(O)c3)nc2c1", "values": [{"measurement": "IC50", "setting": "[2]", "result": "22.3 µM (active)"}]}, {"smiles": "COC(=O)C1CN(C#N)N(c2ccc(Cl)cc2)C12c1ccccc1-c1ccccc12", "note": "(stereo unspecified)", "values": [{"measurement": "AC50", "setting": "[3]", "result": "2.75 µM (active)"}]}, {"smiles": "O=C1NC(=S)S/C1=C\\C=C\\c1ccc([N+](=O)[O-])o1", "values": [{"measurement": "AC50", "setting": "[3]", "result": "1.73 µM (active)"}, {"measurement": "IC50", "setting": "[1]", "result": "> 122 µM (inactive)"}, {"measurement": "IC50", "setting": "[2]", "result": "37.7 µM (active)"}]}]}
